From publication PMC9457815 (Molecules, 2022)

Experiments:
[1] = test system: Huh7 cells; assay: Cytotoxicity assay (Cell-Titer GLO, cellular ATP levels) on Huh7 cells; type: cell-based, human; details: for cell death, Huh7 cells: 200 µM; for cytotoxicity to Huh7 cells: tested concentrations (lycorine: below 50 µM)
Protocol: (§1) Briefly, 7.5 × 10^3 Huh7 cells/well or 2 × 10^4 THP-1 cells/well were plated in black 96-well plates and incubated at 37 °C for 24 h. […] Each dilution was added to the cell plates to obtain final concentrations of 6.25 µM to 200 µM for alkaloids and DMSO, and 0.39 µM to 50 µM for lycorine. […] The plates were then incubated at 37 °C and 5% CO2 for 72 h. Cell-Titer GLO reagent was added to the plates previously equilibrated to room temperature. The plates were then mixed on an orbital shaker for 2 min and incubated for 10 min at room temperature. The luminescence signal was measured with a microplate spectrophotometer (Synergy H1, Biotek, Dorval, QC, Canada). Viability percentages were obtained by calculating the ratio of the signal corresponding to each alkaloid concentration to the signal of the equimolar DMSO control. All experiments were performed at least twice. Median cytotoxic concentrations (CC50) were calculated using QuestGraph IC50 calculator software (MLA Quest Graph™ IC50 Calculator, AAT Bioquest, Inc., Sunnyvale, CA, USA).

[2] = as above; type: cell-based, human; details: human; Huh7 cells, 72 h, ATP levels
Protocol: as §1

[3] = test system: HIV-1GFP; assay: microbe, parasite or virus in culture; type: cell-based, human immunodeficiency virus (HIV)-1; details: for EC50: Human immunodeficiency virus 1, THP-1, 72 h, read-out: EC50 HIV-1; for inhibition at 200 µM: Human immunodeficiency virus 1, THP-1, read-out: inhibition of HIV-1 infection
Protocol: (§2) The plasmid used to obtain the DENVGFP vector (pFK-DVs-G2A) was provided by Ralf Bartenschlager (Heidelberg University, Heidelberg, Germany) and Laurent Chatel-Chaix (Institut National de la Recherche Scientifique, Laval, QC, Canada). The 2 plasmids used to obtain the HIV-1GFP vector were PMD2.G and pNL4-3-GFPΔEnvΔNef. For DENVGFP, viral titer was measured using a plaque assay in Vero cells, as described in [53]. For HIV-1GFP, the viral titer was obtained by measuring the infectivity of serially diluted vectors in CRFK cells, as described in [54].
(§3) Briefly, 7.5 × 10^3 Huh7 cells/well or 2 × 10^4 THP-1 cells/well were plated in 96-well plates at 37 °C for 24 h. […] Each dilution was added to the cell plates to obtain final concentrations of 1.56 µM to 200 µM for alkaloids and matched concentrations of DMSO, and 0.05 µM to 6.4 µM for lycorine or 0.078 µM to 10 µM for raltegravir. Lycorine and raltegravir were used as DENV and HIV-1 inhibitor controls, respectively. DENVGFP and HIV-1GFP were then added at multiplicities of infection (MOIs) of 0.025 and 0.1, respectively. Plates were placed in an incubator at 37 °C and 5% CO2 for 72 h. Afterward, the cells were fixed in 3.7% formaldehyde and the percentage of infection was measured using flow cytometry with an FC500 MPL cytometer (Beckman Coulter, Inc., Brea, CA, USA). Data analysis was performed using Flowjo software (BD, FlowJo LLC, Ashland, OR, USA). All experiments were performed at least twice. EC50 values were calculated using QuestGraph IC50 calculator software (MLA Quest Graph™ IC50 Calculator. AAT Bioquest, Inc. https://www.aatbio.com/tools/ic50-calculator (accessed on 1 July 2022)).

[4] = test system: DENVGFP; assay: Antiviral assay, propagative DENVGFP vector in Huh7 cells, flow cytometry; type: cell-based, dengue virus (serotype 2); details: Dengue virus, Huh-7, 72 h, read-out: EC50 DENV
Protocol: as §2, §3

[5] = Cytotoxicity assay (Cell-Titer GLO, cellular ATP levels) on THP-1 cells; type: cell-based, human; details: human; THP-1 cells, 72 h, ATP levels
Protocol: as §1

[6] = test system: THP-1 cells; assay: as above; type: cell-based, human
Protocol: as §1

[7] = target: T1, AChE (Electrophorus electricus, UniProt O42275); assay: biochemical; type: biochemical, electric eel; details: substrate ATCh; nid = no inhibition detected at 1 mM
T1 construct: purchased Abcam ab138871
T1 sequence (O42275 24-633): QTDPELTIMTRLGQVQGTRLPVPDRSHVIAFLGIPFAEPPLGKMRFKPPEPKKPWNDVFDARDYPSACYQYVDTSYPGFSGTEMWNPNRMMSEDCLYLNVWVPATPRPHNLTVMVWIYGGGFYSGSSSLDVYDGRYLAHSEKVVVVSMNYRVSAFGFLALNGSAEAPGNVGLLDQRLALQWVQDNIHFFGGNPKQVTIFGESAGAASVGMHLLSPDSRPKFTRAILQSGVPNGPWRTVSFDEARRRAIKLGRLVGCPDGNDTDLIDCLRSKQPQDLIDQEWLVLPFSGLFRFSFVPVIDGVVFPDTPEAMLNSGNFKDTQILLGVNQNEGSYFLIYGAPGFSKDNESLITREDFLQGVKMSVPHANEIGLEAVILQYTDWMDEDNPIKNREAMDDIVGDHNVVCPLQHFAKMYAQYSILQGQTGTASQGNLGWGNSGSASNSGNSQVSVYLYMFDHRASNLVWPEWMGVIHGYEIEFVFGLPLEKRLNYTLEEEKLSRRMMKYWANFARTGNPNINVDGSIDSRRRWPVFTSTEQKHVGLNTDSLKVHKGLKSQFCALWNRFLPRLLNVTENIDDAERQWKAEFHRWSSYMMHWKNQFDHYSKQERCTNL
Protocol: (§4) Pharmacological properties specific to AD were tested first on AChEs (electric eel) according to the kit (ab138871, Abcam) that provides a colorimetric measure of enzyme activity and inhibition. Briefly, the reaction was performed in a final volume of 100 μL in 96-well microplates. […] For this, DMSO-dissolved test compounds were added to a final concentration of 1 mM (1% DMSO) in duplicates. Next, a 5 μL reaction mixture containing equal amounts of acetylthiocholine (20X) and DTNB (20X) was added to each well. Ultimately, the enzyme solution was added to a final concentration of 0.25 U/mL and the absorbance was measured at 412 nm in kinetic mode for 10 min using a microplate reader (Synergy H1, Biotek, Dorval, QC, Canada). The same procedure was utilized for the BuChE (equine, Sigma-Aldrich) activity test, except that the enzyme concentration was 2 U/mL per reaction. DTNB (Bis(3-carboxy-4-nitrophenyl) disulfide, Ellman’s Reagent), acetylthiocholine iodide, and butyrylthiocholine iodide were purchased from Sigma-Aldrich (Oakville, ON, Canada). […] Experiments were performed at least twice. Inhibition was calculated as follows:I = 100 × (1 − Δi/Δe) where Δi is the difference in the absorbance between two time points in the presence of the inhibitor, and Δe is the difference in the absorbance using two time points in presence of DMSO or an appropriate solvent.

[8] = target: T2, BuChE (Equus caballus, UniProt P81908); assay: biochemical; design: species or system equine; details: for IC50 BuChE / IC50: nid = no inhibition detected at 1 mM
T2 construct: purchased Sigma-Aldrich
T2 sequence (P81908 whole entry): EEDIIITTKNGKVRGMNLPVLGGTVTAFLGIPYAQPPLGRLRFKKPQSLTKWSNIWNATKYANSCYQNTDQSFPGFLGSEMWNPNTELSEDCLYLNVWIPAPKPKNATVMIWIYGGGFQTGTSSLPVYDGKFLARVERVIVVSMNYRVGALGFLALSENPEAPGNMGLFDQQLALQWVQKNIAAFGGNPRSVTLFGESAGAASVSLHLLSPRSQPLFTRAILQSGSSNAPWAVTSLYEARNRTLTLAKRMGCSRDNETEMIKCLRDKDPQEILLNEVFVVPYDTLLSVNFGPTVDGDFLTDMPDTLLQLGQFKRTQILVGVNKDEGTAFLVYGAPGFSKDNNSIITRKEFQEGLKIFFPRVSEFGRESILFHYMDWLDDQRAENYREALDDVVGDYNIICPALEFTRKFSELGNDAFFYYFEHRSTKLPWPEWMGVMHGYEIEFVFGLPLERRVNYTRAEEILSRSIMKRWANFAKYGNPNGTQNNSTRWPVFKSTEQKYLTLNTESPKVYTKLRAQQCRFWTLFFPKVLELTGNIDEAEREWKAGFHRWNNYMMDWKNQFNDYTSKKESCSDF
Protocol: as §4

[9] = target: T3, POP (Homo sapiens, UniProt P48147); assay: Prolyloligopeptidase (POP) inhibition assay, fluorogenic kit; type: biochemical; details: IC50 POP, substrate DPP (Ala-Pro-AMC dipeptide); nid = no inhibition detected at 1 mM
T3 construct: purchased BPS Bioscience Inc
T3 sequence (P48147 1-710): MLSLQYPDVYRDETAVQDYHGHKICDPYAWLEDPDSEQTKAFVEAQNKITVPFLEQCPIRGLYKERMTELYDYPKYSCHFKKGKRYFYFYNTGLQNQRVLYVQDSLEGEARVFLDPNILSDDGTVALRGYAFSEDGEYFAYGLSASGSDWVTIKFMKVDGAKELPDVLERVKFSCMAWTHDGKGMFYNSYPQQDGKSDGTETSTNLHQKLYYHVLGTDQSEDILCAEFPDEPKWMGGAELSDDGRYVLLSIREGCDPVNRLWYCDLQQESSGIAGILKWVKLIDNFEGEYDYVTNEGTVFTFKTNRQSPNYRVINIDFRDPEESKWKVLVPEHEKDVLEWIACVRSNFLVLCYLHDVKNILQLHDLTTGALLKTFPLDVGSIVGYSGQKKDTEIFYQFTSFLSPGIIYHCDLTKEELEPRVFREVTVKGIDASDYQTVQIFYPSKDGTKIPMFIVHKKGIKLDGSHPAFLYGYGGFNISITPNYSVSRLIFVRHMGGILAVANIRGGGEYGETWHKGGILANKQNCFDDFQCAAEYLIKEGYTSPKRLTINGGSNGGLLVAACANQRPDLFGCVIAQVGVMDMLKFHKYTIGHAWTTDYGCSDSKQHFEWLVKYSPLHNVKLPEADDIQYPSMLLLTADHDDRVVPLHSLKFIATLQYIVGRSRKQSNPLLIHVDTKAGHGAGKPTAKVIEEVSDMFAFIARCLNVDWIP
Protocol: POP enzyme activity was measured using the Fluorogenic POP Assay Kit (BPS Bioscience Inc., San Diego, CA, USA). The reaction was carried out in a final volume of 50 μL in a low-binding NUNC microtiter plate. All compounds were tested at a final concentration of 250 μM in duplicate. A DPP substrate was added to a final concentration of 2.5 μM and the POP enzyme solution was subsequently added to a final concentration of 1 ng/μL. Optical densities at 440 nm were recorded using a microplate reader (Synergy H1, Biotek, QC, Canada).

[10] = 200 µM, killing a majority of the cells
[11] = tested concentrations (lycorine: below 50 µM)

## O=Cc1ccc(O)c(O)c1 [3,4-DHBA, 3,4-dihydroxybenzaldehyde]
[1]
  cell death, Huh7 cells: 50%
[2]
  CC50 at 72 h: 173 µM
[3]
  EC50: 51.5 µM
  inhibition at 200 µM: 94 to 99%
[4]
  EC50: 24.1 µM
[5]
  CC50 at 72 h: 31.7 µM
[6]; 100 µM, killing a majority of the cells
  cytotoxicity to THP-1 cells: highly cytotoxic
[7]
  IC50 AChE: nid
[8]; substrate ATCh
  IC50 BuChE: nid
[8]; substrate BuTCh
  IC50 BuChE: nid

## COc1ccc(CNCCc2ccc(O)cc2)cc1OC [3′,4′-O-dimethylnorbelladine]
[1]
  cell death, Huh7 cells: 50%
[2]
  CC50 at 72 h: 131 µM
[3]
  EC50: 98.3 µM
[4]
  EC50: 27.5 µM
[5]
  CC50 at 72 h: > 200 µM
[7]
  IC50: 320 µM
[8]
  loss of BuChE inhibition compared with norbelladine: 3 fold
[8]; substrate ATCh
  IC50: 87.8 µM
[8]; substrate BuTCh
  IC50: 87.9 µM

## COc1ccc(/C=N/CCc2ccc(O)cc2)cc1OC [3′,4′-O-dimethylnorcraugsodine]
[2]
  CC50 at 72 h: > 200 µM
[3]
  EC50: > 200 µM
[4]
  EC50: > 200 µM
[5]
  CC50 at 72 h: > 200 µM
[7]
  IC50 AChE: nid
[8]; substrate ATCh
  IC50 BuChE: nid
[8]; substrate BuTCh
  IC50 BuChE: nid

## COc1cc(CNCCc2ccc(O)cc2)ccc1O [3′-O-methylnorbelladine]
[2]
  CC50 at 72 h: > 200 µM
[3]
  EC50: 135 µM
[9]
  IC50: 1230 µM
[4]
  EC50: 44.9 µM
[5]
  CC50 at 72 h: 99 µM
[6]; [10]
  cytotoxicity to THP-1 cells: highly cytotoxic
[7]
  IC50 AChE: nid
[8]; substrate ATCh
  IC50: 40.2 µM
[8]; substrate BuTCh
  IC50: 58.9 µM

## COc1cc(/C=N/CCc2ccc(O)cc2)ccc1O [3′-O-methylnorcraugsodine]
[1]
  cytotoxicity to Huh7 cells: weakly cytotoxic
[2]
  CC50 at 72 h: > 200 µM
[3]
  EC50: 107 µM
  inhibition at 200 µM: 94 to 99%
[9]
  IC50: 1150 µM
[4]
  EC50: 176 µM
[5]
  CC50 at 72 h: > 200 µM
[7]
  IC50 AChE: nid
[8]; substrate ATCh
  IC50 BuChE: nid
[8]; substrate BuTCh
  IC50 BuChE: nid

## COc1ccc(CNCCc2ccc(O)cc2)cc1O [4′-O-methylnorbelladine]
[2]
  CC50 at 72 h: > 200 µM
[3]
  EC50: 108 µM
[4]
  EC50: 40.5 µM
[5]
  CC50 at 72 h: > 200 µM
[7]
  IC50 AChE: nid
[8]; substrate ATCh
  IC50: 42.9 µM
[8]; substrate BuTCh
  IC50: 91.6 µM

## COc1ccc(/C=N/CCc2ccc(O)cc2)cc1O [4′-O-methylnorcraugsodine]
[2]
  CC50 at 72 h: > 200 µM
[3]
  EC50: > 200 µM
[4]
  EC50: > 200 µM
[5]
  CC50 at 72 h: > 200 µM
[7]
  IC50 AChE: nid
[8]; substrate ATCh
  IC50 BuChE: nid
[8]; substrate BuTCh
  IC50 BuChE: nid

## O[C@H]1[C@H]2c3cc4c(cc3CN3CCC(=C[C@@H]1O)[C@H]23)OCO4 [Lycorine, reference compound]
[1]
  cytotoxicity to Huh7 cells: cytotoxic
[2]
  CC50 at 72 h: 17.4 µM
[4]
  EC50: 0.09 µM
[5]
  CC50 at 72 h: 10.7 µM
[6]; [11]
  cytotoxicity to THP-1 cells: cytotoxic

## Oc1ccc(CCNCc2ccc(O)c(O)c2)cc1 [Norbelladine]
[1]
  cell death, Huh7 cells: 50%
[2]
  CC50 at 72 h: 72.6 µM
[3]
  EC50: 50.5 µM
  inhibition at 200 µM: 94 to 99%
[4]
  EC50: 50.4 µM
[5]
  CC50 at 72 h: 82.2 µM
[6]; [10]
  cytotoxicity to THP-1 cells: highly cytotoxic
[7]
  IC50 AChE: nid
[8]; substrate ATCh
  IC50: 33.3 µM
[8]; substrate BuTCh
  IC50: 26.1 µM

## Cc1nnc(C(=O)NC(C)(C)c2nc(C(=O)NCc3ccc(F)cc3)c(O)c(=O)n2C)o1 [Raltegravir, reference compound]
[3]
  EC50: 0.098 µM
[5]
  CC50 at 72 h: > 10 µM

## NCCc1ccc(O)cc1 [Tyramine]
[1]
  cytotoxicity to Huh7 cells: not cytotoxic
[2]
  CC50 at 72 h: > 200 µM
[3]
  EC50: > 200 µM
[4]
  EC50: > 200 µM
[5]
  CC50 at 72 h: > 200 µM
[6]; [11]
  cytotoxicity to THP-1 cells: not cytotoxic
[7]
  IC50 AChE: nid
[8]; substrate ATCh
  IC50 BuChE: nid
[8]; substrate BuTCh
  IC50 BuChE: nid

## CCN(C)C(=O)Oc1cccc([C@H](C)N(C)C)c1 [rivastigamine, Rivastigmine, reference compound]
[8]; read-out: BuChE inhibition (positive control)
  inhibition at 2000 µM: 100%
